# Measured values taken from ChEMBL document CHEMBL1909046, “DrugMatrix in vitro pharmacology data”.
# Experiments:
# Androgen receptor = target: T1, Androgen receptor (Rattus norvegicus, UniProt P15207); also: in other assays of this panel Not Active means under 50% inhibition at 10 µM
# T1 sequence (P15207 whole entry): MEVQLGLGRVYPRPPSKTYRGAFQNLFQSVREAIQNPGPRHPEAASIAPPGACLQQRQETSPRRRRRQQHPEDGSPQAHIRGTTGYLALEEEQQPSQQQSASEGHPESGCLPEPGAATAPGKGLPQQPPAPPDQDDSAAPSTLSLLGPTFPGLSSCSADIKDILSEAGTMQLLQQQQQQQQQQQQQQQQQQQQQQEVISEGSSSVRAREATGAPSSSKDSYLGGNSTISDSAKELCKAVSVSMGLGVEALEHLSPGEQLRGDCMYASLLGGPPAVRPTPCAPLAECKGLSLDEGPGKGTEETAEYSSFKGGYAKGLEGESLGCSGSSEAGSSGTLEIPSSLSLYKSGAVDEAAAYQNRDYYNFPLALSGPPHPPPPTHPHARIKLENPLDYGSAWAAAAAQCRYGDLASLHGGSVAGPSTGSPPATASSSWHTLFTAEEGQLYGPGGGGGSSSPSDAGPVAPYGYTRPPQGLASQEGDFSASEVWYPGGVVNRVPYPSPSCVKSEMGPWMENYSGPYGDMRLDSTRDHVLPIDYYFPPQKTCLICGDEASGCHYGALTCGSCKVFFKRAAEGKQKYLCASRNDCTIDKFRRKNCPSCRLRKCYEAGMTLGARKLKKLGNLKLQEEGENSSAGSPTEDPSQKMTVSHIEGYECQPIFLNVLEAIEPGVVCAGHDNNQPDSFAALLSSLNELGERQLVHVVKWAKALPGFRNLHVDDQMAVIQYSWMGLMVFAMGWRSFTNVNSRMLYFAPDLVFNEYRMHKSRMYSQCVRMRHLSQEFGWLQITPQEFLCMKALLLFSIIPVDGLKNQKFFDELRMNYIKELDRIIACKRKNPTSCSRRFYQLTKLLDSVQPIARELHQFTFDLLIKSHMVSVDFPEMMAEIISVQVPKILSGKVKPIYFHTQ
# Mu-type opioid receptor = Mu-type opioid receptor (Homo sapiens, UniProt P35372); test: DRUGMATRIX: Opiate mu (OP3, MOP) radioligand binding (ligand: [3H] Diprenorphine); type: cell membranes, CHO-K1, Membrane; conditions: cho-k1; Not Active = under 50% inhibition at 10 µM
# Chain of Mu-type opioid receptor (P35372 whole entry): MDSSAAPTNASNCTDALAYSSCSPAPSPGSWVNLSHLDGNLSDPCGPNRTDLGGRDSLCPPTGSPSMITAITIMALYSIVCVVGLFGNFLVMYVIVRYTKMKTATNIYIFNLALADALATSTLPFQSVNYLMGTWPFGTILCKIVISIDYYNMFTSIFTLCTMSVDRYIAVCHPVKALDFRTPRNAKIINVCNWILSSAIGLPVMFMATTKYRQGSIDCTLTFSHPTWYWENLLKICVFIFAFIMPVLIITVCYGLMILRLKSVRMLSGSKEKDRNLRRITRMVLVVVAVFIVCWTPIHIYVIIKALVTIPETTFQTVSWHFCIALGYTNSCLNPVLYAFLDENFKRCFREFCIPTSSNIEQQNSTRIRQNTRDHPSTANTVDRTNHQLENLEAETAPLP
# [1] = target: Vascular endothelial growth factor receptor 1 (Homo sapiens, UniProt P17948); test: biochemical; type: cell-based, HUVEC; conditions: huvec; also: in other assays of this panel Not Active means under 50% inhibition at 10 µM
# Chain of Vascular endothelial growth factor receptor 1 (P17948 whole entry): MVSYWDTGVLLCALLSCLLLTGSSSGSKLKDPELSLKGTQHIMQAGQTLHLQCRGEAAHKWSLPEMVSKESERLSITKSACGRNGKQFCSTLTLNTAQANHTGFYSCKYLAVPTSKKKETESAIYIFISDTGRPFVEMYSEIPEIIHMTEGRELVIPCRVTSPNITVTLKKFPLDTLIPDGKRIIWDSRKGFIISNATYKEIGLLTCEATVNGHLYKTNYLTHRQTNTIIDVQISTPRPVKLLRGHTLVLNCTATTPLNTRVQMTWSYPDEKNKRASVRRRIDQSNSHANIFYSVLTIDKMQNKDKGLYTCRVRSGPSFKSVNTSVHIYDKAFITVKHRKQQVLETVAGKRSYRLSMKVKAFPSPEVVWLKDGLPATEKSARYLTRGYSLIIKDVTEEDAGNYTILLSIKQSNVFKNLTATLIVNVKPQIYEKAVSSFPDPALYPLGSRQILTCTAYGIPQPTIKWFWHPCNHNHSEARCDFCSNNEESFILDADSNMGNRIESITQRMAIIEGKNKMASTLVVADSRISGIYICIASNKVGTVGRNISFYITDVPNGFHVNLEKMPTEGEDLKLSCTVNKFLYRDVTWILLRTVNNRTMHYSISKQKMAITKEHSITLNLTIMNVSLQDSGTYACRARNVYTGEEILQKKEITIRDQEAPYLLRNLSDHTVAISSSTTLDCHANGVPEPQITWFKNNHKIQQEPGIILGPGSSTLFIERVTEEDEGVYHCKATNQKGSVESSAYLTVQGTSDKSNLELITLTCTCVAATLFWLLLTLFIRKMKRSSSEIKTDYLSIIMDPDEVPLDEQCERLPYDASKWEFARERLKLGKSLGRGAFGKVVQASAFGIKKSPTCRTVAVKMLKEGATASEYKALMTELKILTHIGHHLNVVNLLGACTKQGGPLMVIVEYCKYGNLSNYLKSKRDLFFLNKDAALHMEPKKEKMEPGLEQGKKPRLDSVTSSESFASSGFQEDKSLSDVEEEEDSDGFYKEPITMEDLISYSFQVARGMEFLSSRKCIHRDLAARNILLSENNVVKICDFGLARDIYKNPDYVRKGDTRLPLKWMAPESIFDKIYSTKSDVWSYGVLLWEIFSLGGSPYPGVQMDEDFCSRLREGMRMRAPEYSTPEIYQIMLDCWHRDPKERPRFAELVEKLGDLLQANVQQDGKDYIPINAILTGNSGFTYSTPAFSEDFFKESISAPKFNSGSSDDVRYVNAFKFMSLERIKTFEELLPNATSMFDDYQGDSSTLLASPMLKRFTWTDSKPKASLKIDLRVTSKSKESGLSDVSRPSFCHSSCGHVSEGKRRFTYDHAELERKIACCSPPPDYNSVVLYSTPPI
# Cytochrome P450 2C9 = Cytochrome P450 2C9 (Homo sapiens, UniProt P11712); also: in other assays of this panel Not Active means under 50% inhibition at 10 µM
# Chain of Cytochrome P450 2C9 (P11712 whole entry): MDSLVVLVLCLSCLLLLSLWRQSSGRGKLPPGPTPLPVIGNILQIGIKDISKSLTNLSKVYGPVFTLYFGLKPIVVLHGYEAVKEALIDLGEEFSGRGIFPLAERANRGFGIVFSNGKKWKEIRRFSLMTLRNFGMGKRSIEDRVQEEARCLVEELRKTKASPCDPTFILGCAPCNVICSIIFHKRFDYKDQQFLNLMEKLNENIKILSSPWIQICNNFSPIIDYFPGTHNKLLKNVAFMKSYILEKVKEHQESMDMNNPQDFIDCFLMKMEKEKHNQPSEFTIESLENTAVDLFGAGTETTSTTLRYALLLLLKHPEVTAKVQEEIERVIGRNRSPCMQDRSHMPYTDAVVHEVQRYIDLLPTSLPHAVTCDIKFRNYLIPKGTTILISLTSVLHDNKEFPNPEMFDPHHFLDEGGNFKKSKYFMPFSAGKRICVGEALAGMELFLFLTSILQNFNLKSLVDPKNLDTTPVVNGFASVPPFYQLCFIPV
# Cytochrome P450 2C19 = Cytochrome P450 2C19 (Homo sapiens, UniProt P33261); also: in other assays of this panel Not Active means under 50% inhibition at 10 µM
# Chain of Cytochrome P450 2C19 (P33261 whole entry): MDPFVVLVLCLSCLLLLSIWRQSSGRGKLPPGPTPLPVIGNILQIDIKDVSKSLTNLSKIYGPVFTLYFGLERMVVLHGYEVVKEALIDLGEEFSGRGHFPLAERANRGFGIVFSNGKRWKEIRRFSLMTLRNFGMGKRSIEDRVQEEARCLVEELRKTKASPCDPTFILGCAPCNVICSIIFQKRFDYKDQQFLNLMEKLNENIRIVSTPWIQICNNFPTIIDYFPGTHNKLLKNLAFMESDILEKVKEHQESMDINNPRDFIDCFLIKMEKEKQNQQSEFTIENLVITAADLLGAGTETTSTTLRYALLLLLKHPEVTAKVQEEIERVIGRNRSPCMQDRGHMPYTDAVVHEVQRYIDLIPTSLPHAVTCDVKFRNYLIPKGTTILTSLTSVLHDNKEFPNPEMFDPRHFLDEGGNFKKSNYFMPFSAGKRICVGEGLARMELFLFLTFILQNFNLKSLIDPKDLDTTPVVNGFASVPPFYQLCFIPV
# [2] = DRUGMATRIX: GABAA, Muscimol, Central radioligand binding (ligand: [3H] Muscimol); type: cell membranes, Rattus norvegicus, Wistar, Brain, Membrane; conditions: Not Active = under 50% inhibition at 10 µM
# [3] = DRUGMATRIX: Potassium Channel [KATP] radioligand binding (ligand: [3H] Glyburide); type: cell membranes, Membrane; conditions: hit-t15; Not Active = under 50% inhibition at 10 µM
# Acetylcholinesterase = Acetylcholinesterase (Homo sapiens, UniProt P22303); test: DRUGMATRIX: Acetylcholinesterase enzyme inhibition (substrate: acetylthiocholine); type: cell-based, HEK293; conditions: hek293; Not Active = under 50% inhibition at 10 µM
# Chain of Acetylcholinesterase (P22303 whole entry): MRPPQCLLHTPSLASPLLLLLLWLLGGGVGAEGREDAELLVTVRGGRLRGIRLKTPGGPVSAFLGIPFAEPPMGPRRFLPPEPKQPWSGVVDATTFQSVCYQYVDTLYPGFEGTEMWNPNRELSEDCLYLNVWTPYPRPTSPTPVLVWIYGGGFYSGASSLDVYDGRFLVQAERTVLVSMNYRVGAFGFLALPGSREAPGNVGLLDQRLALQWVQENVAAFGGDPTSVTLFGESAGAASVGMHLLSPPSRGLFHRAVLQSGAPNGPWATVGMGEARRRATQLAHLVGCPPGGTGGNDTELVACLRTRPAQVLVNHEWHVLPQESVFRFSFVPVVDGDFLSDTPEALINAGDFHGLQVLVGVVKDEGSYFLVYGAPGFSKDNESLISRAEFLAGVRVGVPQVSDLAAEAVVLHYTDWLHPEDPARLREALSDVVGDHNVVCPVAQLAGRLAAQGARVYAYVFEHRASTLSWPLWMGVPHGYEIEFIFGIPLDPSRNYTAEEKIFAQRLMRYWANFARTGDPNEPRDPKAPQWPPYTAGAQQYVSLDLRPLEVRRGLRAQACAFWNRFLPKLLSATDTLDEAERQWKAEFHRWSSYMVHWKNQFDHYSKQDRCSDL
# Cytochrome P450 2D6 = Cytochrome P450 2D6 (Homo sapiens, UniProt P10635); also: in other assays of this panel Not Active means under 50% inhibition at 10 µM
# Chain of Cytochrome P450 2D6 (P10635 whole entry): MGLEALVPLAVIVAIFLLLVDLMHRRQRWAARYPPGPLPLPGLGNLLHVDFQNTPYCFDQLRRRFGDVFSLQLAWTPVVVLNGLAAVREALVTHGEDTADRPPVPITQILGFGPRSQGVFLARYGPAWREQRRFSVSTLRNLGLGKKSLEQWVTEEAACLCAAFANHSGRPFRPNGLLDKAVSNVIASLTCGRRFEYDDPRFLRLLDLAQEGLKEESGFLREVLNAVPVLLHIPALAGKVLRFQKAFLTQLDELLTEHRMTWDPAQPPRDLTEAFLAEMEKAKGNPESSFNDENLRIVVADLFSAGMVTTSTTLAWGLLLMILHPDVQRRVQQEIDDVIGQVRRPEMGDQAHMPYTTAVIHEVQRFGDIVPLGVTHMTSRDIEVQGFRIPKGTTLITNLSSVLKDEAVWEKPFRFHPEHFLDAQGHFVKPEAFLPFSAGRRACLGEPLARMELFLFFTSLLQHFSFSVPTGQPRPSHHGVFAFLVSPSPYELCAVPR
# Glucocorticoid receptor = target: T2, Glucocorticoid receptor (Homo sapiens, UniProt P04150); test: biochemical; also: in other assays of this panel Not Active means under 50% inhibition at 10 µM
# T2 sequence (P04150 whole entry): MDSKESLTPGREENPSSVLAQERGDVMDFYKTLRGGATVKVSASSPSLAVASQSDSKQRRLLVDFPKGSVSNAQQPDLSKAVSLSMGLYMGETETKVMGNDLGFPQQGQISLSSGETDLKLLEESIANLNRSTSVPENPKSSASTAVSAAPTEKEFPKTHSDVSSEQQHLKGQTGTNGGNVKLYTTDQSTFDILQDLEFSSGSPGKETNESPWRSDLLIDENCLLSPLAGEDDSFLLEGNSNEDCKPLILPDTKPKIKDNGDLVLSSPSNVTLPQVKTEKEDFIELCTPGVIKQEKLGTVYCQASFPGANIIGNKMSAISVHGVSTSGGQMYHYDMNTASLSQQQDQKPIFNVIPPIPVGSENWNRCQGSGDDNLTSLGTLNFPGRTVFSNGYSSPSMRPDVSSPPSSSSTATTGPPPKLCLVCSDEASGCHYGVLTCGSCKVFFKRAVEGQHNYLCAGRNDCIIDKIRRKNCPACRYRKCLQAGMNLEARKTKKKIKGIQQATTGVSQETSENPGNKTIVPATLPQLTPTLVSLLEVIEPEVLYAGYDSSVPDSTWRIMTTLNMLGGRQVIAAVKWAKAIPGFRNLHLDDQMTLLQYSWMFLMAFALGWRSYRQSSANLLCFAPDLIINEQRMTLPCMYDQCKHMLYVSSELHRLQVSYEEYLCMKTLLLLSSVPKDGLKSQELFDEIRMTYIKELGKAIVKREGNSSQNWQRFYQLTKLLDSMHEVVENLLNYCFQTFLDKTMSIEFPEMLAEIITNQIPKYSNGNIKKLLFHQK
# Cytochrome P450 1A2 = target: T3, Cytochrome P450 1A2 (Homo sapiens, UniProt P05177); also: in other assays of this panel Not Active means under 50% inhibition at 10 µM
# T3 sequence (P05177 whole entry): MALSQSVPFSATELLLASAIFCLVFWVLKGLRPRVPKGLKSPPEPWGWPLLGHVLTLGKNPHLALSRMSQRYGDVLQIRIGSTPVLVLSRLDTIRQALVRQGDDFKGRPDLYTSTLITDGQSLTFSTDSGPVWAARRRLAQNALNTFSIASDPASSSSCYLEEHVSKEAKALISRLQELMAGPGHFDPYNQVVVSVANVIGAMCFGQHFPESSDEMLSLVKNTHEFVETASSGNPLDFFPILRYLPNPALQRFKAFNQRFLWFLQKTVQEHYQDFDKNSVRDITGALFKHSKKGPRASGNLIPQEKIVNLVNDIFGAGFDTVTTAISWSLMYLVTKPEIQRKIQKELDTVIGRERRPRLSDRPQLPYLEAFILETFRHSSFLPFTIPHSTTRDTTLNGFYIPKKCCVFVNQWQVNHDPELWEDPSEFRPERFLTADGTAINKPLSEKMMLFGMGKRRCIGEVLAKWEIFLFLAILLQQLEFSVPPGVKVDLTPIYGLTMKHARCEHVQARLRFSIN
SMILES,IC50 (Androgen receptor),IC50 (Mu-type opioid receptor),IC50 [1],IC50 (Cytochrome P450 2C9),IC50 (Cytochrome P450 2C19),IC50 [2],Ki [2],IC50 [3],Ki [3],IC50 (Acetylcholinesterase),IC50 (Cytochrome P450 2D6),IC50 (Glucocorticoid receptor),Ki (Glucocorticoid receptor),IC50 (Cytochrome P450 1A2)
O=C(c1ccccc1C(F)(F)F)N1CCC(Cc2ccccc2)CC1,Not Active,Not Active,Not Active,2000 nM,400 nM,Not Active,Not Active,Not Active,Not Active,Not Active,–,–,–,–
COc1ccc2cc3[n+](cc2c1OC)CCc1cc2c(cc1-3)OCO2.[Cl-] [BERBERINE CHLORIDE],–,Not Active,Not Active,–,–,Not Active,Not Active,Not Active,Not Active,–,4500 nM,–,–,–
CC(=O)Oc1ccc(C(c2ccc(OC(C)=O)cc2)c2ccccn2)cc1 [BISACODYL],Not Active,Not Active,Not Active,10000 nM,–,Not Active,Not Active,Not Active,Not Active,Not Active,–,–,–,–
Cc1cc2c(OCC(CNC(C)(C)C)OC(=O)c3ccccc3)cccc2[nH]1 (centres undefined) [BOPINDOLOL],–,Not Active,Not Active,–,–,Not Active,Not Active,Not Active,Not Active,Not Active,5480 nM,–,–,–
CCC(=O)O[C@]1(C(=O)CCl)[C@@H](C)C[C@H]2[C@@H]3CCC4=CC(=O)C=C[C@]4(C)[C@@]3(F)[C@@H](O)C[C@@]21C [CLOBETASOL PROPIONATE],–,Not Active,Not Active,–,–,Not Active,Not Active,Not Active,Not Active,Not Active,–,1.46 nM,0.662 nM,–
C[C@@H]1C[C@H]2[C@@H]3CCC4=CC(=O)C=C[C@]4(C)[C@@]3(F)[C@@H](O)C[C@]2(C)[C@H]1C(=O)CO [DESOXIMETASONE],–,Not Active,Not Active,–,–,Not Active,Not Active,Not Active,Not Active,Not Active,–,2.57 nM,1.17 nM,–
OC(CCCN1CCCCC1)(c1ccccc1)c1ccccc1 [DIPHENIDOL],Not Active,Not Active,Not Active,–,–,Not Active,Not Active,Not Active,Not Active,Not Active,326 nM,–,–,–
Oc1c(Cl)cc(Cl)c(Cl)c1Cc1c(O)c(Cl)cc(Cl)c1Cl [HEXACHLOROPHENE],–,Not Active,Not Active,–,1230 nM,Not Active,Not Active,Not Active,Not Active,–,–,–,–,1310 nM
